Results from ChEMBL document CHEMBL1201862, “PubChem BioAssay data set” (2004).
Calls of active or inactive are those of the source.

Experiments:
[1] = target: T1, Apoptotic protease-activating factor 1 (Homo sapiens, UniProt O14727); test: SAR analysis of small molecule Activators of Apaf-1 in a Fluorescent assay.; assay type: functional; settings: read-out: EC50_Mean;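 note: caspase-3 cleavage of fluorogenic Rh110 DEVD substrate downstream of apoptosome activation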
T1 sequence (O14727 whole entry): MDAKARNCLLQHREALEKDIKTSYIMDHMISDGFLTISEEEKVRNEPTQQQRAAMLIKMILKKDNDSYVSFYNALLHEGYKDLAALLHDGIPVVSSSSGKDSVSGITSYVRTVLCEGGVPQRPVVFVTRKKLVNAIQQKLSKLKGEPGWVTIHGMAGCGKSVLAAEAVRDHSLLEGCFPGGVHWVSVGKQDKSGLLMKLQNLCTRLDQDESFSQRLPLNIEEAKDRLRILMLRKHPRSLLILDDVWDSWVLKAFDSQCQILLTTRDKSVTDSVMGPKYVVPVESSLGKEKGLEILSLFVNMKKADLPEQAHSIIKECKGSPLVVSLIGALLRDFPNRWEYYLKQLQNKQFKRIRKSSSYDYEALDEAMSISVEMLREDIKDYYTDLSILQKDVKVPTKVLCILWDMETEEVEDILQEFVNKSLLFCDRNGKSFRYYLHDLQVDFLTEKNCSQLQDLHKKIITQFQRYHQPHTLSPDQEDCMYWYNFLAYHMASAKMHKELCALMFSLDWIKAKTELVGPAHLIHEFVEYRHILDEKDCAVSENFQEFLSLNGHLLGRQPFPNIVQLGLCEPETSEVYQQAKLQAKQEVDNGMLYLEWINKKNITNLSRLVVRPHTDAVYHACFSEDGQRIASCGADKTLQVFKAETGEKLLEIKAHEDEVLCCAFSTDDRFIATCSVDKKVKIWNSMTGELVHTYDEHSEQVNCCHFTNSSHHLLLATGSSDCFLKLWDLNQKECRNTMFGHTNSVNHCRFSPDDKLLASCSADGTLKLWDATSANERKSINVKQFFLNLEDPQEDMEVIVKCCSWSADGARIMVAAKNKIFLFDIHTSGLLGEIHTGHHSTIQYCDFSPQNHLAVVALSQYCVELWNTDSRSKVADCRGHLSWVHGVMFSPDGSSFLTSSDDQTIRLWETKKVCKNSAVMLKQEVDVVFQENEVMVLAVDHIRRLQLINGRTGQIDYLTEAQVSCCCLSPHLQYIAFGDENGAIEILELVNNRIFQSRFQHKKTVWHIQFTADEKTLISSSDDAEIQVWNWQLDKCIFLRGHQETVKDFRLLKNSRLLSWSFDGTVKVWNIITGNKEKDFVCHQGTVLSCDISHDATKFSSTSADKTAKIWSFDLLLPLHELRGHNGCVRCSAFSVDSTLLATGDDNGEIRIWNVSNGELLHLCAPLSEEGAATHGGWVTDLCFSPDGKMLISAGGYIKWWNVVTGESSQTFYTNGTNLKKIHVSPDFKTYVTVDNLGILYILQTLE

P388/ADR = test: cells; assay type: functional; settings: Mus musculus
SN12K1 = test: cells; assay type: functional; settings: Homo sapiens
P388 = test: cells; assay type: functional; settings: Mus musculus
Interleukin-8 [2] = target: T2, Interleukin-8 (Homo sapiens, UniProt P10145); test: Dose Response confirmation of uHTS small molecule hits for cystic fibrosis induced NFkb Inhibitors in a TNFa-induced IL8 counterscreen.; assay type: functional; settings: read-out: IC50_Mean
T2 sequence (P10145 whole entry): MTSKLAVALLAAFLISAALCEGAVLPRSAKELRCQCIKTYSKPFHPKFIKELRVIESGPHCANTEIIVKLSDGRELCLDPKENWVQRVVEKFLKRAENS

Interleukin-8 [3] = target: T2, Interleukin-8; test: Dose Response confirmation of uHTS small molecule hits for cystic fibrosis induced NFkb Inhibitors in a PAF-induced IL8 counterscreen.; assay type: functional; settings: read-out: IC50_Mean
[4] = target: T3, Dual specificity protein phosphatase 6 (Rattus norvegicus, UniProt Q64346); test: MKP-3 phosphatase inhibitors, primary screen, biochemical, rat enzyme, in vitro (AID 425)
T3 sequence (Q64346 whole entry): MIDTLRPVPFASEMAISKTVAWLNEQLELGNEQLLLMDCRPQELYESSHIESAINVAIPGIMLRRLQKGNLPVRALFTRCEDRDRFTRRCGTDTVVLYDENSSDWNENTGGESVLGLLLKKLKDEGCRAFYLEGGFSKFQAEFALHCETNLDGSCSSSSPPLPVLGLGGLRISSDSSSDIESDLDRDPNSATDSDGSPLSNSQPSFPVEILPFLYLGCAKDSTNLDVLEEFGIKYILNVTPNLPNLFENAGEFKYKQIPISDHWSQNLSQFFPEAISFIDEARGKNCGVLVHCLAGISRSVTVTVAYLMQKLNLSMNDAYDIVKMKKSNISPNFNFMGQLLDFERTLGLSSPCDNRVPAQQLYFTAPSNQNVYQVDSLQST

[5] = target: Low molecular weight phosphotyrosine protein phosphatase (Homo sapiens, UniProt P24666); assay type: functional; settings: read-out: IC50_Mean;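 note: Dose-response confirmation assay measuring inhibition of LMPTP enzyme activity by fluorescence intensity read-out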
[6] = target: Beta-2 adrenergic receptor (Homo sapiens, UniProt P07550); test: beta2AR agonists driving receptor internalization, dose response, cell-based, FAP fluorogen, flow cytometry, cherry pick 1 (AID 588763); assay type: functional
Fatty acid synthase [7] = target: T4, Fatty acid synthase (Homo sapiens, UniProt P49327); test: FAS thioesterase domain inhibitors, dose response, biochemical, endpoint fluorescence intensity, uHTS hits (AID 624327); assay type: functional;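 note: fluorescence from hydrolysis of an O-methyl fluorescein acyl ester substrate by the enzyme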
Fatty acid synthase [8] = target: T4, Fatty acid synthase; test: FAS thioesterase domain inhibitors, dose response, biochemical, kinetic fluorescence intensity (AID 624326); assay type: functional;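 note: rate of fluorescence rise from hydrolysis of a fluorogenic O-methyl fluorescein ester substrate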
[9] = inhibitors of intracellular T. cruzi replication, confirmation, NIH3T3 host cells, beta-gal luminescence (AID 2044); assay type: functional, cell-based;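 note: intracellular parasites grown in NIH/3T3 mouse fibroblasts as host cells; luminescent beta-galactosidase reporter signal from transgenic T. cruzi replicating inside host cells; inhibitors lower the luminescence signal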
[10] = cytotoxicity toward NIH3T3 fibroblasts, dose response, counter-screen, cell-based, ATP luminescence, mouse fibroblasts (AID 2010); assay type: functional;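 note: cells exposed to compound for about 90 hours before reading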
[11] = target: T5, Heat shock factor protein 1 (Mus musculus, UniProt P38532); test: HSF1 potentiators in luciferase reporter cells, confirmation, cell-based, NIH3T3, luminescence, dose retest (AID 435004); assay type: functional;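 note: stress induced by proteasome inhibitor MG132 added 30 min after compound; luciferase reporter driven by HSF1 response element in NIH3T3 cells; actives raise luminescence as potentiators of the MG132 stress response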
T5 sequence (P38532 whole entry): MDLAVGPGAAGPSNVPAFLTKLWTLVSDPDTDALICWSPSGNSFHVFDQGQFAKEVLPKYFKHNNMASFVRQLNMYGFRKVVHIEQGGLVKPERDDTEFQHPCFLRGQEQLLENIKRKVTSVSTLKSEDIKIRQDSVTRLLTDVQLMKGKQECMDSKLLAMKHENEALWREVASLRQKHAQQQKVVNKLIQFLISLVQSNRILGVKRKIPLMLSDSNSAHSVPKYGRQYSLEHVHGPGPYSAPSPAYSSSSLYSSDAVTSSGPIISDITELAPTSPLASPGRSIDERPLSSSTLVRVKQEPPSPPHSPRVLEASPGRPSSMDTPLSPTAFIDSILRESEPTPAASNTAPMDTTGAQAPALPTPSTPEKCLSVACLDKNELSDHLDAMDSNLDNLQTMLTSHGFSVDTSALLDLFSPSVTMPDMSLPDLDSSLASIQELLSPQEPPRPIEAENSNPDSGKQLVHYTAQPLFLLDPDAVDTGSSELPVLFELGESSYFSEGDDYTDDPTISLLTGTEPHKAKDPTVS

X-box-binding protein 1 = target: T6, X-box-binding protein 1 (Homo sapiens, UniProt P17861); assay type: functional, Cricetulus griseus;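 note: confirmatory dose-response counter-screen serving a CHOP assay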
T6 sequence (P17861 whole entry): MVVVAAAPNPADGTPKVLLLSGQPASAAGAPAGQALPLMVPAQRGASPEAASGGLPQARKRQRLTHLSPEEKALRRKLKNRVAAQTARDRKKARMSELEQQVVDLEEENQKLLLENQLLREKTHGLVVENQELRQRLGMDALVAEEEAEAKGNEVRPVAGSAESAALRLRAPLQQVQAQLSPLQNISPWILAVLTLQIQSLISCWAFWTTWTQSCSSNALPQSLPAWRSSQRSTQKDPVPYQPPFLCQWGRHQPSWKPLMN

Melanocortin receptor 4 = Melanocortin receptor 4 (Homo sapiens, UniProt P32245); assay type: functional, cell-based;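 note: Cell-based assay with luminescence read-out, confirmatory dose-response testing for agonist activity of biased ligands at MC4R; human U2OS cells with tagged receptor and beta-arrestin; potency of agonists that increase receptor coupling to beta-arrestin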
[12] = AlphaScreen signal interference compounds, dose response, artefact control for ARNT-TACC3 interaction inhibitor project, biochemical, luminescence, cherry-pick (AID 651705); assay type: functional;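 note: AlphaScreen bead proximity signal that flags compounds interfering with the detection technology; potency reflects signal decrease which marks the compound as an assay artifact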
[13] = target: Nuclear receptor subfamily 5 group A member 2 (Homo sapiens, UniProt O00482); assay type: functional, cell-based;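 note: HEK293T cells transfected with LRH-1 and a StAR promoter luciferase reporter; potency for inhibitors that lower LRH-1 driven reporter light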
Steroidogenic factor 1 = Steroidogenic factor 1 (Homo sapiens, UniProt Q13285); test: Counterscreen for inverse agonists of the liver receptor homolog-1 (LRH-1; NR5A2): Luminescence-based cell-based high throughput dose response assay to identify inverse agonists of the Steroidogenic Factor 1 Nuclear Receptor (SF1; NR5A1).; assay type: functional
[14] = StAR promoter reporter inhibition counter-screen, dose response, counter-screen for LRH-1 inverse agonist project, cell-based, luminescence, luciferase reporter (AID 651969); assay type: functional
[15] = miR-122 activators in hepatoma reporter cells, dose response, cell-based, Huh7 psiCHECK-miR122, Renilla luciferase, cherry-picked (AID 651956); assay type: functional;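 note: huh7 hepatoma cells stably carrying a psiCHECK-2 miR-122 sensor plasmid; renilla luciferase signal reporting endogenous miR-122 activity after 48 h compound exposure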
Large T antigen = Large T antigen (Simian virus 40, UniProt P03070); assay type: functional, Betapolyomavirus macacae;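 note: Confirmatory-stage PubChem screen for compounds that inhibit SV40 T antigen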
[16] = target: T7, Rac GTPase-activating protein 1 (Homo sapiens, UniProt Q9H0H5); test: MgcRacGAP GTPase-activating activity inhibitors, confirmation, biochemical, ADP Hunter fluorescence, primary and confirmatory (AID 624330); assay type: functional
T7 sequence (Q9H0H5 whole entry): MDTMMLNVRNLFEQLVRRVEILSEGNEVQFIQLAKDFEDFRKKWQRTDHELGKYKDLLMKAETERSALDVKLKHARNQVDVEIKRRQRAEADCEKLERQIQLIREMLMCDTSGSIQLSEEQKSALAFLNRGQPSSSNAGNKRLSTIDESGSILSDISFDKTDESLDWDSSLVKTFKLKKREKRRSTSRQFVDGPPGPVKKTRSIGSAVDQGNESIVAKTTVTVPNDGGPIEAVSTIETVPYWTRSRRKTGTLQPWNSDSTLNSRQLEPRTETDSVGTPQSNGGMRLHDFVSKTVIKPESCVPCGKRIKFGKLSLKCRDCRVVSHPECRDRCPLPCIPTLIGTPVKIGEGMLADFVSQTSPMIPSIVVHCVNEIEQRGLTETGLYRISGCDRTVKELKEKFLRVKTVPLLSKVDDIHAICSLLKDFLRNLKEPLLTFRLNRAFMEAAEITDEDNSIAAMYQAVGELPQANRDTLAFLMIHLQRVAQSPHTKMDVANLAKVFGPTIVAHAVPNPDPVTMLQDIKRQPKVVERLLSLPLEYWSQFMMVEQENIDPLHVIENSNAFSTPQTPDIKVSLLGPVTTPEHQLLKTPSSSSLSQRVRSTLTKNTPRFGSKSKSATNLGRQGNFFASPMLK

Paired box protein Pax-8 = Paired box protein Pax-8 (Homo sapiens, UniProt Q06710); test: inhibitors of PAX8-driven TPO luciferase reporter, dose response, RMG-I cells, cherry-pick (AID 687027); assay type: functional, cell-based;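 note: luciferase reporter driven by Pax8 target thyroperoxidase promoter measured by SteadyGlo luminescence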
Chain of Paired box protein Pax-8 (Q06710 whole entry): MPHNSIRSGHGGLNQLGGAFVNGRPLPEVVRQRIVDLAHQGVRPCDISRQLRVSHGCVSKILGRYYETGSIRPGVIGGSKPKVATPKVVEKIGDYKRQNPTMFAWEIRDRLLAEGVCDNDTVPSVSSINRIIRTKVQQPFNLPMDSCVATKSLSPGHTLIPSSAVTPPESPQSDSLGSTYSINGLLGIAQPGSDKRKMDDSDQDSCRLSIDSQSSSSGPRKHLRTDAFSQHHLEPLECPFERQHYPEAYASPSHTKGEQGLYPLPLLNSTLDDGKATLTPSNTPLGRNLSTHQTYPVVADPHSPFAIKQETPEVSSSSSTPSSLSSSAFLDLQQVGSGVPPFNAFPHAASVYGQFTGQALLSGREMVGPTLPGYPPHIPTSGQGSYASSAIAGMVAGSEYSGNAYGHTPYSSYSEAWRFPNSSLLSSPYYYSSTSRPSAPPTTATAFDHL

Chain of Steroidogenic factor 1 (Q13285 whole entry): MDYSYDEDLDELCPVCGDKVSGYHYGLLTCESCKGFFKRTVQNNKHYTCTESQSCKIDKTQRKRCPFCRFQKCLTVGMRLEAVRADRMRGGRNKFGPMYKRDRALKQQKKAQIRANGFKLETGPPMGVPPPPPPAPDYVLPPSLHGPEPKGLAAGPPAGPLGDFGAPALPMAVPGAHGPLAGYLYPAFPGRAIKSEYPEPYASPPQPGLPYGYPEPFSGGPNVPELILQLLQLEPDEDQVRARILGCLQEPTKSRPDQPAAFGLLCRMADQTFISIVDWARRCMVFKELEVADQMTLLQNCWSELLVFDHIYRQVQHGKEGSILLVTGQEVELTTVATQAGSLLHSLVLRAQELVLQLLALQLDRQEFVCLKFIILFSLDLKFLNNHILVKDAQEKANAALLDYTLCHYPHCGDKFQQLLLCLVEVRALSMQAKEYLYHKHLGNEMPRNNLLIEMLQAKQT
T4 sequence (P49327 whole entry, the tested form may be a part): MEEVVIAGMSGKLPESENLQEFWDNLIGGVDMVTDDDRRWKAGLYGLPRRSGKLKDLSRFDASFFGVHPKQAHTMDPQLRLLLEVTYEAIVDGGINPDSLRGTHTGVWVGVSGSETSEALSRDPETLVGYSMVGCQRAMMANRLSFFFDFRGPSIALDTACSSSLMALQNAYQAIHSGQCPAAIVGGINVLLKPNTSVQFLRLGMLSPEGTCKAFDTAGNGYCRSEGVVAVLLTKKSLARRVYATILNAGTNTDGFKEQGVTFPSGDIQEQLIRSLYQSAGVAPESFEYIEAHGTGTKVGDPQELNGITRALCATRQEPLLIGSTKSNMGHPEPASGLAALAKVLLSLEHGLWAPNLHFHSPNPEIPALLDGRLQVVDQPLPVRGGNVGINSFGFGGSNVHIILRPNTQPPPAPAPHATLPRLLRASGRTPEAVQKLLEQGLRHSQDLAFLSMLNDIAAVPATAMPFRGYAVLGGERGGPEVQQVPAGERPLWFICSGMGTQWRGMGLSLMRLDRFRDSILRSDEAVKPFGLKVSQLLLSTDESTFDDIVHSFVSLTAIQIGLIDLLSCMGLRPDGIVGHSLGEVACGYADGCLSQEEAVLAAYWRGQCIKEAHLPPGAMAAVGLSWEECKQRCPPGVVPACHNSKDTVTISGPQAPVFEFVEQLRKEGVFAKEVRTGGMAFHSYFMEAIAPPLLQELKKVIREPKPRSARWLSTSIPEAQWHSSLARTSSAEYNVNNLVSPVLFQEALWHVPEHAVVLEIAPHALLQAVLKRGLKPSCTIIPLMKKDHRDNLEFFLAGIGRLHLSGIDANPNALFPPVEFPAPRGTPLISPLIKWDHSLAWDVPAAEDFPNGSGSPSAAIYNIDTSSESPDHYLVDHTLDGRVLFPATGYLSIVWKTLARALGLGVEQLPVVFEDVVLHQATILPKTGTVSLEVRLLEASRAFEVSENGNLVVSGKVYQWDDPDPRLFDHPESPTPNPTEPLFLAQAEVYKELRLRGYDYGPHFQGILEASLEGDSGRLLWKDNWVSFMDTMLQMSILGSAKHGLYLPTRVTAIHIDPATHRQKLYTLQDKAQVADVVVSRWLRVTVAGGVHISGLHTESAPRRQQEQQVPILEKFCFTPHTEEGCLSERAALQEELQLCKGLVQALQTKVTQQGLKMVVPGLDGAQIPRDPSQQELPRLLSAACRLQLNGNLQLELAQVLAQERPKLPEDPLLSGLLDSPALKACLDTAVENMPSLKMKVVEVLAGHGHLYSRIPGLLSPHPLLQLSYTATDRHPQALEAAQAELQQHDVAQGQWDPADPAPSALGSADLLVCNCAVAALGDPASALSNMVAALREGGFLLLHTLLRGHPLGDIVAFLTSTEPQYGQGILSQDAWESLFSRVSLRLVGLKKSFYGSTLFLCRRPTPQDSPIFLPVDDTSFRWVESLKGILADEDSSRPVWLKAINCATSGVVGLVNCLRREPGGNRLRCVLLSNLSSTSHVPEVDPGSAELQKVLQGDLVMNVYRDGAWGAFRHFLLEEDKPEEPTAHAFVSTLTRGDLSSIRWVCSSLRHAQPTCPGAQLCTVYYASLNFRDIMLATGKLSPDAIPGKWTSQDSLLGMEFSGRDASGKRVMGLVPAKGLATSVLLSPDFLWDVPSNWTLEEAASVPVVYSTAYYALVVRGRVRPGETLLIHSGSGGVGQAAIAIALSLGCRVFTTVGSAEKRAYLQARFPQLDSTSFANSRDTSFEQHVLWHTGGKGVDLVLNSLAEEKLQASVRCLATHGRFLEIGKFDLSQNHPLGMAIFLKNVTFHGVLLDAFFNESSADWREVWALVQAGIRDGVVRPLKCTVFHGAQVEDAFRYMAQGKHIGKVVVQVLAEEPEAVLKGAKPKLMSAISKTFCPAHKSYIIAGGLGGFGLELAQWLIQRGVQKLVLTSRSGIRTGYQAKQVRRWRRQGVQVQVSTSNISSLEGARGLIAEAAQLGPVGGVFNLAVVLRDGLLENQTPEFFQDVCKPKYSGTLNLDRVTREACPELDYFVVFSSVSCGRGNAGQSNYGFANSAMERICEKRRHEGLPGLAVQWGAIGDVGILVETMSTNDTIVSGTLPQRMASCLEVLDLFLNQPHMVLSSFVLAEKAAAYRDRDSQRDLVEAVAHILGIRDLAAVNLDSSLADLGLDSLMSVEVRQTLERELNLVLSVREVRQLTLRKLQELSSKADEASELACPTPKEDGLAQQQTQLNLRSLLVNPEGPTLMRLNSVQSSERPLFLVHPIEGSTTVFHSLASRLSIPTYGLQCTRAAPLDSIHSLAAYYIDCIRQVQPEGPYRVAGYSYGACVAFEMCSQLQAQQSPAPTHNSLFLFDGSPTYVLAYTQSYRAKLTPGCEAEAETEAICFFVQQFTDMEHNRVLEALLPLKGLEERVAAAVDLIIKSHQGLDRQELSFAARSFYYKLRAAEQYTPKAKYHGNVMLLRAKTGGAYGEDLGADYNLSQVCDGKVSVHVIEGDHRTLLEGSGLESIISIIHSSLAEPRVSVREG
Chain of Low molecular weight phosphotyrosine protein phosphatase (P24666 whole entry): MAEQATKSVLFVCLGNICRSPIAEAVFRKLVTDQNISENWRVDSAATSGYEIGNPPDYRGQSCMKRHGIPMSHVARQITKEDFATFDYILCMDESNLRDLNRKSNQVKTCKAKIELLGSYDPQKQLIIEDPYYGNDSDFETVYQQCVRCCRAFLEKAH
Chain of Beta-2 adrenergic receptor (P07550 whole entry, the tested form may be a part): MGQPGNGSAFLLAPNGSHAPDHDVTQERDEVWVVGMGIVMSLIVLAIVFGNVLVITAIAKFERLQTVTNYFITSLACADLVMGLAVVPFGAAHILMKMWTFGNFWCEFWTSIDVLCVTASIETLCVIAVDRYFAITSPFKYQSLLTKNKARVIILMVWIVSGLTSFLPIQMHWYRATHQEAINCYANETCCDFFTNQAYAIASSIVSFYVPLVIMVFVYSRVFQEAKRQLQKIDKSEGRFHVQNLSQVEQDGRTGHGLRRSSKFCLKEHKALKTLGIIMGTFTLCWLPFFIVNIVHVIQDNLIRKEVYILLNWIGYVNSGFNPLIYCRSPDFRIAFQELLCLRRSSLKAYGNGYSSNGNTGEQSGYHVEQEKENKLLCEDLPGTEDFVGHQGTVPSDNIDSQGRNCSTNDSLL
Chain of Nuclear receptor subfamily 5 group A member 2 (O00482 whole entry): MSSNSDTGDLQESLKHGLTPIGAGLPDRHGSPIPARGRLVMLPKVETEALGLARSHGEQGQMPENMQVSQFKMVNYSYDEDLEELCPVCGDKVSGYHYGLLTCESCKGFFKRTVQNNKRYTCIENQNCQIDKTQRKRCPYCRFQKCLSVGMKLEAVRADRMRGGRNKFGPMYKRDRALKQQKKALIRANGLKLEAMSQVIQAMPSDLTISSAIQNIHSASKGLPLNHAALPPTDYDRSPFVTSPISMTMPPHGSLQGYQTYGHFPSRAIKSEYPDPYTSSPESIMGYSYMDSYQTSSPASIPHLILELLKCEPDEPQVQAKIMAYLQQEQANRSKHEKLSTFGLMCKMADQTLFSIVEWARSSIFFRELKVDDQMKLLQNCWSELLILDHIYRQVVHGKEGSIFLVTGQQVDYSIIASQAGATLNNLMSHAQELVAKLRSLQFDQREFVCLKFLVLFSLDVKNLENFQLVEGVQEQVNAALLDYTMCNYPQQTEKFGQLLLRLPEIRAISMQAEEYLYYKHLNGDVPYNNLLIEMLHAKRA
Chain of Melanocortin receptor 4 (P32245 whole entry): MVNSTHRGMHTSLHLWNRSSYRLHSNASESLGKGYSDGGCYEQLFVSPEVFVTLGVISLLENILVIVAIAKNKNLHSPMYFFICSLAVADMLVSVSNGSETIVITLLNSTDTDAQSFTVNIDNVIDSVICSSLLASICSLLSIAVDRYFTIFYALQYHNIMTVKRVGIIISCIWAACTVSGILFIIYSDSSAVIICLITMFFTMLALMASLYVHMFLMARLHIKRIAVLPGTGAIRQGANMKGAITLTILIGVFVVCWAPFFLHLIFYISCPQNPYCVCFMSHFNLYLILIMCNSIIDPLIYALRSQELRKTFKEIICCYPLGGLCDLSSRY

## O=C(O)[C@@H]1COC(c2ccccc2C(F)(F)F)=N1
[1]
  EC50: > 100 µM (inactive)

## Cc1ccccc1-c1nc2c(C(=O)NCCN(C)C)cccc2[nH]1
P388/ADR
  GI50: 26.5 µM (inactive)
SN12K1
  GI50: 30.5 µM (inactive)
P388
  GI50: 16.3 µM (inactive)

## COc1ccc(-c2csc(NC3OC(=O)c4c3ccc(OC)c4OC)n2)cc1OC (stereo not given)
Interleukin-8 [2]
  IC50: 0.969 µM (active)
Interleukin-8 [3]
  IC50: 1.37 µM (active)

## COc1cc2c(cc1Oc1ccc(OC)c3c1CC1c4c(cc(OC)c(OC)c4-3)CCN1C)CC1c3c(cc(OC)c(OC)c3-2)CCN1C (stereo not given)
P388/ADR
  GI50: 1.87 µM (inactive)
SN12K1
  GI50: 0.424 µM (active)
P388
  GI50: 1.77 µM (inactive)

## O=C(O)c1cnc2ccc(S(=O)(=O)N3CCN(c4ccc(F)cc4)CC3)cc2c1O
[4]
  IC50: > 10 µM (not active)
[5]
  IC50: 50.6 µM (inactive)

## COc1cc2ncc(S(=O)(=O)c3ccccc3)c(N3CCCC(C)C3)c2cc1OC (stereo not given)
[6]
  EC50: 1.07 µM (active)
Fatty acid synthase [7]
  IC50: 4.78 µM (active)
Fatty acid synthase [8]
  IC50: 3.13 µM (active)

## Cc1ccc(C2=NN(C(=O)c3cccs3)C(c3ccccc3O)C2)cc1 (stereo not given)
[9]
  EC50: 2.49 µM (active)
[10]
  EC50: > 60 µM (not active)
[11]
  EC50: > 260 µM (inactive)
X-box-binding protein 1
  Absolute IC50 (XBP1): 10 µM
Melanocortin receptor 4
  EC50: > 89.2 µM (inactive)

## CC(Nc1nc(-c2ccccc2F)nc2ccccc12)c1ccccc1 (stereo not given)
[5]
  IC50: 5.48 µM (active)

## COc1cc(-c2nnc(NC(=O)CS(=O)(=O)c3ccc(F)cc3)o2)cc(OC)c1OC
[12]
  AC50: 102 µM (active)

## O=C(NCCCn1ccnc1)Nc1ccc(Cl)c(Cl)c1
[12]
  AC50: 99 µM (active)

## NC(c1ccccc1)c1csc(NC(=O)Nc2ccccc2Oc2ccccc2)n1 (stereo not given)
Melanocortin receptor 4
  EC50: > 89.2 µM (inactive)

## O=C(CSc1nc(=O)n2cc(Cl)ccc2n1)Nc1ccc2c(c1)OCCO2
[13]
  IC50: 35.9 µM (inactive)
Steroidogenic factor 1
  IC50: 35.9 µM (inactive)
[14]
  IC50: 35.9 µM (inactive)

## Cc1ccc(N2C(=O)CC3(CC(c4ccc(Br)cc4)=NO3)C2=O)cc1 (stereo not given)
[1]
  EC50: > 100 µM (inactive)

## COc1ccc(CC(NC(C)=O)C(=O)NC2CCN(c3nnnn3-c3ccccc3)CC2)cc1 (stereo not given)
[13]
  IC50: 16.5 µM (inactive)
Steroidogenic factor 1
  IC50: 11.3 µM (inactive)
[14]
  IC50: 35.9 µM (inactive)

## COc1ccc(C#Cc2ccc3c(c2)O[C@H](CN(C)C(=O)CN2CCOCC2)[C@H](C)CN([C@@H](C)CO)S3(=O)=O)cc1
[15]
  AC50: 29.9 µM (active)

## CCOC(=O)C1(C)C=C(Nc2ccc(O)cc2)C(=O)N1c1ccc(O)cc1 (stereo not given)
Large T antigen
  IC50: 8.11 µM (active)
[6]
  EC50: 1.09 µM (active)
[16]
  IC50: 21.4 µM (active)

## COCCOCOc1ccc(OCc2ccccc2)cc1
P388/ADR
  GI50: 24 µM (inactive)
SN12K1
  GI50: > 100 µM (inactive)
P388
  GI50: 31.3 µM (inactive)

## C=C1C(=O)O[C@@H]2[C@H]1CC[C@H](C)[C@]1(O)CCC(=O)[C@@]21C [CORONOPILIN]
Interleukin-8 [2]
  IC50: 40.5 µM (inactive)
Interleukin-8 [3]
  IC50: 7.49 µM (active)
Paired box protein Pax-8
  AC50: 5.43 µM (active)
